PMC4929166, “Pharmacological evaluation of synthetic cannabinoids identified as constituents of spice” (Forensic Toxicology, 2016)
Read-outs that look alike come from different tables or passages of the source.

Legend:
CB2 receptor [1] = molecular target: T1, CB2 receptor (Homo sapiens, UniProt P34972); test: biochemical; type: binding; parameters: expressed in transfected cells; host or cells: CHO cells (membrane preparation); settings: for Ki: versus 0.1 nM [3H]CP55,940, CHO cell membranes, mean ± SEM of three to five experiments, read-out: Ki ± SEM Human CB2
CB1 receptor [2] = molecular target: T2, CB1 receptor (Homo sapiens, UniProt P21554); test: biochemical; type: binding; parameters: expressed in transfected cells; host or cells: CHO cells (membrane preparation); settings: for CB1 selectivity Ki CB2/KiCB1: Table S1, selectivity index from Ki values; for Ki: versus 0.1 nM [3H]CP55,940, CHO cell membranes, mean ± SEM of three to five experiments, read-out: Ki ± SEM Human CB1
human GPR55 = molecular target: T3, human GPR55 (Homo sapiens, UniProt Q9Y2T6); test: β-Arrestin recruitment assay (PathHunter) at GPR55; type: cell-based; settings: for Human GPR55 % activation / Human GPR55 % inhibition: β-arrestin assay; for Human GPR55 % activation: percent in brackets beside EC50 >10 µM; for Human GPR55 % inhibition: percent in brackets beside IC50
T3 construct: β-galactosidase enzyme fragment (PathHunter complementation tag)
Method: (§1) Recruitment of β-arrestin to the respective receptor was detected by using β-galactosidase enzyme fragment complementation technology (β-arrestin PathHunter™ assay, DiscoverX, Fremont, CA, USA) as previously described. Data were obtained from three independent experiments, performed in duplicates. Data were analyzed using Graph Pad Prism Version 4.02 (San Diego, CA, USA).

Human CB1 [3] = settings: ref Blaazer et al. [33], cited from earlier work
human GPR18 = molecular target: T4, human GPR18 (Homo sapiens, UniProt Q14330); test: β-Arrestin recruitment assay (PathHunter) at GPR18; type: cell-based; settings: for Human GPR18 % activation / Human GPR18 % inhibition: β-arrestin assay; for Human GPR18 % activation: percent in brackets beside EC50 >10 µM; for Human GPR18 % inhibition: percent in brackets beside IC50
T4 construct: β-galactosidase enzyme fragment (PathHunter complementation tag)
T4 sequence (Q14330 1-331): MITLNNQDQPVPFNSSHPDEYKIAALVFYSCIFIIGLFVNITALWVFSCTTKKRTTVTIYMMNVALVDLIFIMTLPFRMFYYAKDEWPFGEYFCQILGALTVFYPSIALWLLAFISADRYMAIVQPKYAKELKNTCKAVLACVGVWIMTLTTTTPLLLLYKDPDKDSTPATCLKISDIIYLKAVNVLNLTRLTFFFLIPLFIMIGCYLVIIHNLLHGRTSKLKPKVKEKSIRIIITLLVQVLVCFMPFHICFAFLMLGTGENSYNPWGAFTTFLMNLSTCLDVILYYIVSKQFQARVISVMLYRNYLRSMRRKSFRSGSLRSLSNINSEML
Method: as §1

Human CB2 [4] = settings: read-out: Ki Human CB2 (literature) (converted), cited from earlier work
Human CB2 [5] = settings: read-out: EC50 Human CB2 (literature, functional assay) (converted), cited from earlier work
Human CB1 [6] = settings: read-out: EC50 Human CB1 (literature, functional assay) (converted), cited from earlier work
CB1 receptor [7] = molecular target: T2, CB1 receptor; test: cell-based; type: cell-based; parameters: expressed in transfected cells; host or cells: CHO cells; settings: cAMP accumulation, forskolin 10 µM; test concentration 1 µM or 10 µM; normalized to CP55,940
CB2 receptor [8] = molecular target: T1, CB2 receptor; test: cAMP accumulation assay in CHO cells expressing CB2; type: cell-based; parameters: expressed in transfected cells; host or cells: CHO cells; settings: cAMP accumulation, forskolin 10 µM; test concentration 1 µM or 10 µM; normalized to CP55,940
[9] = Human GPR55 IC50, β-arrestin assay, antagonist mode
[10] = Table S1, selectivity index from Ki values

T2 sequence (P21554 whole entry): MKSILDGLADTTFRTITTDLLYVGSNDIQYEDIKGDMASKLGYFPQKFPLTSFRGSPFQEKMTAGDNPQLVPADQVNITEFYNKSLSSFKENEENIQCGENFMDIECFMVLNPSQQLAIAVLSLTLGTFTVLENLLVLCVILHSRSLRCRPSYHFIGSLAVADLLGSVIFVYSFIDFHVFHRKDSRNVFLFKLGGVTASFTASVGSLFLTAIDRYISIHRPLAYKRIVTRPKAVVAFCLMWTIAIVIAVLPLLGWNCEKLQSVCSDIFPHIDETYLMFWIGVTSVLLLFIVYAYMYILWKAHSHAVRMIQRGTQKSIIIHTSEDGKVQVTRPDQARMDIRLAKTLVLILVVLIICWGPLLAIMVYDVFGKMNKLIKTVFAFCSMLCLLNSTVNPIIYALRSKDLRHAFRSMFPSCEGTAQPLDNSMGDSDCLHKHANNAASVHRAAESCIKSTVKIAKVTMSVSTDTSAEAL
T1 sequence (P34972 whole entry): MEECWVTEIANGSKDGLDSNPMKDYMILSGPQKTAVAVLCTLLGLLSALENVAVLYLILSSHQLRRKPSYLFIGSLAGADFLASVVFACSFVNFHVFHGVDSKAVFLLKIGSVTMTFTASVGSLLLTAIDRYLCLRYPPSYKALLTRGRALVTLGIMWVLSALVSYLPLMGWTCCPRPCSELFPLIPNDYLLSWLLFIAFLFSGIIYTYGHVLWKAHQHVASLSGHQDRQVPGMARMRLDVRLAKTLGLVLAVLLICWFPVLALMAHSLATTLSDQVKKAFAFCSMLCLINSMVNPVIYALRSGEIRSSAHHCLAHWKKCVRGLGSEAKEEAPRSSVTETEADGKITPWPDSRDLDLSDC
T3 sequence (Q9Y2T6 whole entry, the tested form may be a part): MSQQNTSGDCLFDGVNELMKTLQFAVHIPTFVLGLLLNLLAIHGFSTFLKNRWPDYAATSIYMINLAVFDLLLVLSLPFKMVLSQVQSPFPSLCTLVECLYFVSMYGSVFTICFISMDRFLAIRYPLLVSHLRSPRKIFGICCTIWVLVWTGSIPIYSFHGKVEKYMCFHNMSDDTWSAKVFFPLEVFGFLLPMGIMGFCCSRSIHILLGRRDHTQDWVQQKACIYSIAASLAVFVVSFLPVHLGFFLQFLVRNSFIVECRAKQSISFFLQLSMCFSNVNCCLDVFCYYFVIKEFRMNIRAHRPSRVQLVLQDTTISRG

| SMILES | Ki (CB2 receptor [1]) [nM] | CB1 selectivity Ki CB2/KiCB1 (CB1 receptor [2]) | Ki (CB1 receptor [2]) [nM] | EC50 (human GPR55) [nM] | IC50 (human GPR55; [9]) [nM] | Human GPR55 % activation (human GPR55) [%] | Human GPR55 % inhibition (human GPR55) [%] | EC50 (human GPR18) [nM] | IC50 (human GPR18) [nM] | Human GPR18 % activation (human GPR18) [%] | Human GPR18 % inhibition (human GPR18) [%] | EC50 (Human CB2 [5]; ref Banister et al. [28]) [nM] | EC50 (Human CB1 [6]; ref Banister et al. [28]) [nM] | other results |
| --- | --- | --- | --- | --- | --- | --- | --- | --- | --- | --- | --- | --- | --- | --- |
| CCCCCn1cc(C(=O)Nc2cccc3ccccc23)c2ccccc21 [Compound 4, NNEI] | 21.9 ± 5.5 | 12.0 | 1.82 ± 0.35 | > 10000 | > 10000 | 26 | 30 | > 10000 | > 10000 | 42 | −15 | – | – | pKi value at the CB1 receptor (Human CB1 [3]): 8.9; Ki (Human CB1 [3]; read-out: Ki Human CB1 (literature) (converted)): 1.25 nM; Ki (Human CB2 [4]; ref Blaazer et al. [33]): 100 nM |
| CCCCCn1cc(C(=O)NCc2ccccc2)c2ccccc21 [Compound 12, SDB-006] | 188 ± 38 | 3.5 | 53 ± 1.1 | > 10000 | > 10000 | −5 | 36 | > 10000 | > 10000 | −9 | 22 | 19 | 134 | – |
| O=C(NCc1ccccc1)c1cn(CCCCCF)c2ccccc12 [Compound 13, 5F-SDB-006] | 430 ± 73 | 6.0 | 71.9 ± 13.5 | > 10000 | > 10000 | −3 | 11 | > 10000 | > 10000 | 13 | −24 | 123 | 50 | – |
| CCCCCn1cc(C(=O)NC23CC4CC(CC(C4)C2)C3)c2ccccc21 [Compound 15, APICA] | 1.22 ± 0.14 | – | 6.52 ± 3.73 | > 10000 | 4770 ± 1690 | 11 | – | > 10000 | > 10000 | 8 | 44 | 29 | 128 | CB2 selectivity Ki CB1/KiCB2 (CB2 receptor [1]): 5.3 |
| O=C(NC12CC3CC(CC(C3)C1)C2)c1cn(CCCCCF)c2ccccc12 [Compound 16, STS-135 (5F-APICA)] | 0.794 ± 0.071 | – | 2.51 ± 0.35 | > 10000 | 3410 ± 470 | 1 | – | > 10000 | > 10000 | −2 | 30 | 13 | 51 | CB2 selectivity Ki CB1/KiCB2 (CB2 receptor [1]; [10]): 3.2 |
| CCCCCn1nc(C(=O)Oc2cccc3ccccc23)c2ccccc21 [Compound 22, SDB-005] | 2.61 ± 1.07 | – | 3.59 ± 0.89 | > 10000 | > 10000 | 8 | 23 | > 10000 | > 10000 | 15 | 24 | 140 | 116 | CB2 selectivity Ki CB1/KiCB2 (CB2 receptor [1]; [10]): 1.4 |
| O=C(Oc1cccc2ccccc12)c1nn(CCCCCF)c2ccccc12 [Compound 23, 5F-SDB-005] | 3.41 ± 1.34 | 1.3 | 2.58 ± 1.09 | > 10000 | > 10000 | 21 | 47 | > 10000 | > 10000 | 21 | 24 | 136 | 148 | – |
| CCCCCn1cc(C(=O)Oc2cccc3cccnc23)c2ccccc21 [Compound 24, PB-22] | 0.433 ± 0.106 | 1.4 | 0.318 ± 0.071 | > 10000 | > 10000 | 15 | -12 | > 10000 | > 10000 | −18 | 26 | 2.8 | 5.1 | efficacy at CB1 receptor (in words) (CB1 receptor [7]): partial agonist with similar efficacy as Δ^9-THC; efficacy at CB2 receptor (in words) (CB2 receptor [8]): partial agonist with similar efficacy as Δ^9-THC |
| CCCCCn1cc(C(=O)C23CC4CC(CC(C4)C2)C3)c2ccccc21 [Compound 35, AB001] | 1.72 ± 0.15 | – | 33 ± 7.42 | > 10000 | ~10000 | −14 | 56 | > 10000 | ~10000 | −12 | 62 | – | – | CB2 selectivity Ki CB1/KiCB2 (CB2 receptor [1]; [10]): 19.2; EC50 (Human CB2 [5]; ref Banister et al. [46]): 45 nM; EC50 (Human CB1 [6]; ref Banister et al. [46]): 35 nM |
| CC1(C)C(C(=O)c2cn(CCN3CCOCC3)c3ccccc23)C1(C)C [Compound 45, A-796,260] | 8.02 ± 0.77 | – | – | > 10000 | – | −1 | – | > 10000 | > 10000 | 20 | −10 | – | – | Ki (Human CB2 [4]; ref Frost et al.[29]): 4.4 nM |
| CC1(C)C(C(=O)c2cn(CC3CCOCC3)c3ccccc23)C1(C)C [Compound 46, A-834,735] | 0.566 ± 0.153 | – | – | > 10000 | – | 8 | – | > 10000 | > 10000 | 6 | 6 | – | – | IC50 (human GPR55; Human GPR55 IC50 (extrapolated), Extrapolated values, a full curve could not be determined due to limited solubility): 6880 ± 1510 nM; Ki (Human CB2 [4]; ref Frost et al.[29]): 0.21 nM |
| CCCCCn1cc(C(=O)Nc2ccc3ccccc3c2)c2ccccc21 [non-fluorinated derivative of compound 7, reference compound] | – | – | – | – | – | – | – | – | – | – | – | – | – | pKi value at the CB1 receptor (Human CB1 [3]): 7.2 |
